We go through 14 compounds from US20260042762A1 (Kymera Therapeutics, Inc., priority 2018, published 2026).

This experiment deals with T1, MerTK (Homo sapiens, UniProt Q12866).
T1 construct: endogenous in cells; host or cells: Jurkat cells
T1 sequence (Q12866 21-999): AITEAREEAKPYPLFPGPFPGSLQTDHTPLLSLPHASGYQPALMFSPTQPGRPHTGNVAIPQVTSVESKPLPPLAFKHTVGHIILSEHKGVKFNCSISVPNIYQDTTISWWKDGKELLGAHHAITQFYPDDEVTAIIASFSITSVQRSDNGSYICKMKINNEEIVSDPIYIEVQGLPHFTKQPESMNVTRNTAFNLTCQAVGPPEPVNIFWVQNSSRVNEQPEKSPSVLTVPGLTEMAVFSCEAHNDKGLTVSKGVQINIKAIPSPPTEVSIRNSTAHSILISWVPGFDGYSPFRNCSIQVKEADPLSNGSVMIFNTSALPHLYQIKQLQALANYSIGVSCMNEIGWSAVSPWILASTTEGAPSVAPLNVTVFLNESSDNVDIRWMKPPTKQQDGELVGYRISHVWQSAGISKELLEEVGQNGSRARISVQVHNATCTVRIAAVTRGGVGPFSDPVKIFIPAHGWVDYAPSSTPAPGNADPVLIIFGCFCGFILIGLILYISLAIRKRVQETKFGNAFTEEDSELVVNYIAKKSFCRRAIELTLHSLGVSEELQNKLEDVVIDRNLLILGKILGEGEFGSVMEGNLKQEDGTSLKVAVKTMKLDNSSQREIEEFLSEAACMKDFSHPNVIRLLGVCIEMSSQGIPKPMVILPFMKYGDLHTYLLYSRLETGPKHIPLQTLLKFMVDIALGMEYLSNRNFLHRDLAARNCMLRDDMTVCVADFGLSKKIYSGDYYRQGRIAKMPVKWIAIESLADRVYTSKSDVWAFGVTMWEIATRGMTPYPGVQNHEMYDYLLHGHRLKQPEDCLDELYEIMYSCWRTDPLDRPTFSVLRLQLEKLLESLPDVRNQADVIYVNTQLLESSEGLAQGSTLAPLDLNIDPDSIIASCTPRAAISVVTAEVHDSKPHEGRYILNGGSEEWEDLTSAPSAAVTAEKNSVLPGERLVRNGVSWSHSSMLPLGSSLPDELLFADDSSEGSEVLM
Kind of experiment: MerTk degradation in Jurkat cells (Western blot). It is filed as cell-based. Particulars: Jurkat, 4 h, 0.001-1 μM, 4 hour-incubation at 37° C., read-out: Jurkat Max % MerTK Degradation. Put shortly:
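Jurkat cells treated 4 h at 37 °C with compound at 0.001-1 μM final. RIPA lysates quantified by BCA, then MerTK probed by Western blot against actin loading control with IR-dye secondaries and Odyssey imaging.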
On to `C[C@H](CC(F)(F)F)Nc1ncc2c(-c3ccc(CN4CCN(CCCOCCCc5ccc6c(c5)n(C)c(=O)n6C5CCC(=O)NC5=O)CC4)cc3)cn([C@H]3CC[C@H](O)CC3)c2n1` (some centres unmarked) [I-111], for which the Dmax is above 50%.
The value for `Cn1c(=O)n([C@H]2CCC(=O)NC2=O)c2ccc(CCCN3CC(CCN4CCN(Cc5ccc(-c6cn([C@H]7CC[C@H](O)CC7)c7nc(NCCC(F)(F)F)ncc67)cc5)CC4)C3)cc21` [I-112, 3-(3-methyl-2-oxo-5-[3-[3-(2-[4-[(4-[7-[trans-4-hydroxycyclohexy1]-2-[(3,3,3-trifluoropropyl)amino]-7H-pyrrolo[2,3-d]pyrimidin-5-yl]phenyl)methyl]piperazin-1-yl]ethyl)azetidin-1-yl]propyl]-2,3-dihydro-1H-1,3-benzodiazol-1-y1)piperidine-2,6-dione] was below 20%; that for `Cn1c(=O)n([C@H]2CCC(=O)NC2=O)c2ccc(Cn3cc(CN4CCN(Cc5ccc(-c6cn([C@H]7CC[C@H](O)CC7)c7nc(NCCC(F)(F)F)ncc67)cc5)CC4)nn3)cc21` [I-113, 3-(3-Methyl-2-oxo-5-[[4-([4-[(4-[7-[trans-4-hydroxycyclohexyl]-2-[(3,3,3-trifluoropropyl)amino]-7H-pyrrolo[2,3-d]pyrimidin-5-yl]phenyl)methyl]piperazin-1-yl]methyl)-1H-1,2,3-triazol-1-yl]methyl]-2,3-dihydro-1H-1,3-benzodiazol-1-yl)piperidine-2,6-dione] was above 50%.
The value for `Cn1c(=O)n([C@H]2CCC(=O)NC2=O)c2ccc(CCn3cc(CN4CCN(Cc5ccc(-c6cn([C@H]7CC[C@H](O)CC7)c7nc(NCCC(F)(F)F)ncc67)cc5)CC4)nn3)cc21` [I-114, 3-(3-methyl-2-oxo-5-[12-[4-([4-1(4-[17-[trans-4-hydroxycyclohexyl]-2-[(3,3,3-trifluoropropyl)aminol-7H-pyrrolo[2,3-d]pyrimidin-5-yl]phenyl)methyl]piperazin-1-yl]methyl)-1H-1,2,3-triazol-1-yl]ethyl]-2,3-dihydro-1H-1,3-benzodiazol-1-yl)piperidine-2,6-dione] was above 50%; that for `Cn1c(=O)n([C@H]2CCC(=O)NC2=O)c2ccc(CCCOCCCN3CCN(Cc4ccc(-c5cn([C@H]6CC[C@H](O)CC6)c6nc(NCCC(F)F)ncc56)cc4)CC3)cc21` [I-115, 3-[5-[3-(3-[4-[(4-[2-[(3,3-difluoropropyl)amino]-7-[(1r,4r)-4-hydroxycyclohexy1]-7H-pyrrolo[2,3-d]pyrimidin-5-yl]phenyl)methyl]piperazin-1-yl]propoxy)propyl]-3-methyl-2-oxo-2,3-dihydro-1H-1,3-benzodiazol-1-yl]piperidine-2,6-dione; formic acid] was above 50%.
Next, `Cn1c(=O)n([C@H]2CCC(=O)NC2=O)c2ccc(CCCN3CC(N4CCN(Cc5ccc(-c6cn([C@H]7CC[C@H](O)CC7)c7nc(NCCC(F)(F)F)ncc67)cc5)CC4)C3)cc21` [I-116, 3-[3-methyl-2-oxo-5-[3-(3-[4-[(4-[7-[trans-4-hydroxycyclohexyl]-2-[(3,3,3-trifluoropropyl)amino]-7H-pyrrolo[2,3-d]pyrimidin-5-yl]phenyl)methyl]piperazin-1-yl]azetidin-1-y1)propyl]-2,3-dihydro-1H-1,3-benzodiazol-1-yl]piperidine-2,6-dione]: above 50%.
Turning to `Cn1c(=O)n([C@H]2CCC(=O)NC2=O)c2ccc(CCCN3CCC(N4CCN(Cc5ccc(-c6cn([C@H]7CC[C@H](O)CC7)c7nc(NCCC(F)(F)F)ncc67)cc5)CC4)CC3)cc21` [I-117, 3-[3-methyl-2-oxo-5-[3-(4-[4-[(4-[7-[trans-4-hydroxycyclohexy1]-2-[(3,3,3-trifluoropropyl)amino]-7H-pyrrolo[2,3-d]pyrimidin-5-yl]phenyl)methyl]piperazin-1-yl]piperidin-1-y1)propyl]-2,3-dihydro-1H-1,3-benzodiazol-1-yl]piperidine-2,6-dione], the Dmax is above 50%.
As for `Cn1c(=O)n(C2CCC(=O)NC2=O)c2ccc(CCCN3CCCC(N4CCN(Cc5ccc(-c6cn([C@H]7CC[C@H](O)CC7)c7nc(NCCC(F)(F)F)ncc67)cc5)CC4)C3)cc21` (stereo partly drawn) [I-118, 3-[3-methyl-2-oxo-5-[3-(3-[4-[(4-[7-[trans-4-hydroxycyclohexy1]-2-[(3,3,3-trifluoropropyl)amino]-7H-pyrrolo[2,3-d]pyrimidin-5-yl]phenyl)methyl]piperazin-1-y1]piperidin-1-y1)propyl]-2,3-dihydro-1H-1,3-benzodiazol-1-yl]piperidine-2,6-dione; formic acid], the Dmax lay within 20 to 50%.
Next, `Cn1c(=O)n([C@H]2CCC(=O)NC2=O)c2ccc(CCCCN3CC(N4CCN(Cc5ccc(-c6cn([C@H]7CC[C@H](O)CC7)c7nc(NCCC(F)(F)F)ncc67)cc5)CC4)C3)cc21` [I-119, 3-[3-methyl-2-oxo-5-[4-(3-[4-[(4-[7-[trans-4-hydroxycyclohexyl]-2-[(3,3,3-trifluoropropyl)amino]-7H-pyrrolo[2,3-d]pyrimidin-5-yl]phenyl)methyl]piperazin-1-yl]azetidin-1-yl)butyl]-2,3-dihydro-1H-1,3-benzodiazol-1-yl]piperidine-2,6-dione; bis(formic acid)]: above 50%; `Cn1c(=O)n([C@H]2CCC(=O)NC2=O)c2ccc(CCCCN3CCC(N4CCN(Cc5ccc(-c6cn([C@H]7CC[C@H](O)CC7)c7nc(NCCC(F)(F)F)ncc67)cc5)CC4)CC3)cc21` [I-120, 3-[3-methyl-2-oxo-5-[4-(4-[4-[(4-[7-[trans-4-hydroxycyclohexyl]-2-[(3,3,3-trifluoropropyl)amino]-7H-pyrrolo[2,3-d]pyrimidin-5-yl]phenyl)methyl]piperazin-1-yl]piperidin-1-yl)butyl]-2,3-dihydro-1H-1,3-benzodiazol-1-yl]piperidine-2,6-dione]: above 50%; `Cn1c(=O)n(C2CCC(=O)NC2=O)c2ccc(CCCCN3CCCC(N4CCN(Cc5ccc(-c6cn([C@H]7CC[C@H](O)CC7)c7nc(NCCC(F)(F)F)ncc67)cc5)CC4)C3)cc21` (stereo partly drawn) [I-121, 3-[3-methyl-2-oxo-5-[4-(3-[4-[(4-[7-[trans-4-hydroxycyclohexyl]-2-[(3,3,3-trifluoropropyl)amino]-7H-pyrrolo[2,3-d]pyrimidin-5-yl]phenyl)methyl]piperazin-1-yl]piperidin-1-yl)butyl]-2,3-dihydro-1H-1,3-benzodiazol-1-yl]piperidine-2,6-dione]: above 50%.
Next, `Cn1c(=O)n(C2CCC(=O)NC2=O)c2ccc(CCCN3CCC(N4CCN(Cc5ccc(-c6cn([C@H]7CC[C@H](O)CC7)c7nc(NCCC(F)(F)F)ncc67)cc5)CC4)C3)cc21` (stereo partly drawn) [I-122, 3-[3-methyl-2-oxo-5-[3-(3-[4-[(4-[7-[trans-4-hydroxycyclohexy1]-2-[(3,3,3-trifluoropropyl)amino]-7H-pyrrolo[2,3-d]pyrimidin-5-yl]phenyl)methyl]piperazin-1-y1]pyrrolidin-1-y1)propyl]-2,3-dihydro-1H-1,3-benzodiazol-1-yl]piperidine-2,6-dione; formic acid]: above 50%.
In the case of `Cn1c(=O)n(C2CCC(=O)NC2=O)c2ccc(CCCCN3CCC(N4CCN(Cc5ccc(-c6cn([C@H]7CC[C@H](O)CC7)c7nc(NCCC(F)(F)F)ncc67)cc5)CC4)C3)cc21` (stereo partly drawn) [I-123, 3-[3-methyl-2-oxo-5-[4-(3-[4-[(4-[7-[trans-4-hydroxycyclohexyl]-2-[(3,3,3-trifluoropropyl)amino]-7H-pyrrolo[2,3-d]pyrimidin-5-yl]phenyl)methyl]piperazin-1-yl]pyrrolidin-1-yl)butyl]-2,3-dihydro-1H-1,3-benzodiazol-1-yl]piperidine-2,6-dione; formic acid], the Dmax was above 50%.
Next, `Cn1c(=O)n(C2CCC(=O)NC2=O)c2ccc(CCN3CCC(OCCN4CCN(Cc5ccc(-c6cn([C@H]7CC[C@H](O)CC7)c7nc(NCCC(F)(F)F)ncc67)cc5)CC4)C3)cc21` (stereo partly drawn) [I-124, 3-(3-methyl-2-oxo-5-[2-[3-(2-[4-[(4-[7-[trans-4-hydroxycyclohexyl]-2-[(3,3,3-trifluoropropyl)amino]-7H-pyrrolo[2,3-d]pyrimidin-5-yl]phenyl)methyl]piperazin-1-yl]ethoxy)pyrrolidin-1-yl]ethyl]-2,3-dihydro-1H-1,3-benzodiazol-1-y1)piperidine-2,6-dione; tris(formic acid)]: above 50%.
